Test results: patent US20220062258A1, “Heterocyclic derivatives” (Merck Patent GmbH, priority 2019, published 2022)

Assays:
[1] = tested on: HUVEC primary endothelial cells; experiment: HUVEC proliferation assay (CyQUANT Direct); format: cell-based; settings: Homo sapiens, 72 h, 3 days incubation
Procedure: HUVEC Proliferation Assay
Proliferation of HUVEC primary endothelial cells was used as cell-based mechanistical assay.^25 Applying the CyQUANT@ Direct Cell Proliferation Assay (Invitrogen C35011) which is based on a cell-permeant fluorescent DNA-binding dye, DNA content is used as a direct measure for cell number. Pooled HUVEC cells (Promocell C-12203) are cultivated in the medium supplied by Promocell (Cat No C-22020) for maximum 4 passages. For the assay 500 cells/well are seeded into black 384-well culture plates with clear bottom in 70 μl culture medium and incubated for 6 hours at 37° C., 5% CO2. 10 μl prediluted test compounds are added and cells incubated for 3 days at 37° C., 5% CO2 before measurement of DNA content. CyQUANT detection reagent is prepared according to the manufacturers protocol, 20 μl/well added and incubated at 37° C., 5% CO2 for at least 1 h before measurement of fluorescence at Envision multimode reader (Perkin-Elmer, Waltham) with excitation 480 nm and emission 535 nm (bottom read mode). The assay is performed as dose response with 10 compound dilutions. Inhibitory values (IC50) were determined using the program ASSAY ANALYZER® from GeneData (Basel, Switzerland).

MetAP-2 [2] = molecular target: T1, MetAP-2 (Homo sapiens, UniProt P50579); experiment: Degradation of MetAP-2 in HCT116 cells (Western blot, MetAp2/GAPDH signal); format: cell-based; set-up: endogenous in cells; host or cells: HCT116; settings: for Signal MetAp2/GAPDH normalized to untreated (DMSO): HTC116 cells, <1 means degradation
Target sequence in this assay (P50579 whole entry, the tested form may be a part): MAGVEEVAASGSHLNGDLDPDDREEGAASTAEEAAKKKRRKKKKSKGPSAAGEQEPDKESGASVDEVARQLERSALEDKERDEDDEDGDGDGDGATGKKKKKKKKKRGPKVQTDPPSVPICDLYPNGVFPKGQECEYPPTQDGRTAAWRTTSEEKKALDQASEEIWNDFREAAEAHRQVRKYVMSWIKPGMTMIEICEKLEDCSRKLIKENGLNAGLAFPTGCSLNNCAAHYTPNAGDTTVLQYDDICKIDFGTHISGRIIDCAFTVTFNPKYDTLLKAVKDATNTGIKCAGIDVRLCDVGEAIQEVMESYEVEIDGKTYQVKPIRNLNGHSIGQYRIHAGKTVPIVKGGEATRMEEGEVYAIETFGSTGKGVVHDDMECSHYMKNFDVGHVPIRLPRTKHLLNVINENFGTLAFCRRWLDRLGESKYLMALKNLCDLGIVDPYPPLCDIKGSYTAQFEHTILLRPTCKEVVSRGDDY

MetAP-2 [3] = molecular target: T1, MetAP-2; experiment: Biochemical activity testing of MetAP-2 (enzyme-coupled assay, Met-Ala-Ser substrate); set-up: N-terminal His tag human rec MetAP2 (prepared in house, AA 2-478, final concentration (fc) 123 nM); His tag (N); TEV cleavage site (N); made in house
Procedure: Biochemical Activity Testing of MetAP-2
MetAP-2 activity was determined by an enzyme-coupled assay using the tripeptide Met-Ala-Ser (MAS) as substrate and recombinant human MetAP-2 (His-Tev-MetAP-2, prepared at Merck). The released methionine is converted by L-amino acid oxidase (AAO) to oxidized Methionine and hydrogen peroxide is released. In a second step horse radish peroxidase catalyzes the oxidation of the leuko dye dianisidine to oxidized dianisidine using hydrogen peroxide as co-substrate. The produced dianisidine ox was detected photometrically as increase in absorbance at 450 nm. Met-AP2 activity was determined in a kinetic measurement mode. The release of one molecule methionine corresponds to the production of one molecule dianisidine ox. The MetAP2 enzymatic activity is directly corresponding to the increase in absorbance per time.
In detail, the assay was performed in 384 well microtiter plate (Greiner 78110 MTP, transparent) in a total reaction volume of 50 μl at 22° C. 0.35 μg of N-terminal His tag human rec MetAP2 (prepared in house, AA 2-478, final concentration (fc) 123 nM), 1 unit horse radish Peroxidase (Roche, Mannheim), 0.02 unit L-amino acid oxidase (Merck, Darmstadt), 0.6 mM dianisidine (Merck, Darmstadt, dissolved in 50 mM HCl, 10% DMSO) were incubated in the absence or presence of the test compound (10 dilution concentrations) in 100 mM Hepes, 50 mM NaCl, 50 μM MnCl2 at pH 7.0 for 15 min at 22° C. The reaction was started by the addition of 500 μM (fc) MAS peptide (Merck, Darmstadt). After mixing the first absorbance measurement was performed on an Envision multimode reader (Perkin-Elmer, Waltham) at wavelength of 450 nm. The reaction was incubated at 22° C. for additional 45 min and the second absorbance measurement was performed. The increase of absorbance per time was determined. The control value used was the inhibitor-free reaction with 0.5% DMSO (fc). As pharmacological inhibitor control Fumagillin (Merck, Darmstadt) in a final concentration of 5 μM was used. The inhibitory values (IC50) were determined using the program ASSAY ANALYZER® from GeneData (Basel, Switzerland).
Target sequence in this assay (P50579 2-478): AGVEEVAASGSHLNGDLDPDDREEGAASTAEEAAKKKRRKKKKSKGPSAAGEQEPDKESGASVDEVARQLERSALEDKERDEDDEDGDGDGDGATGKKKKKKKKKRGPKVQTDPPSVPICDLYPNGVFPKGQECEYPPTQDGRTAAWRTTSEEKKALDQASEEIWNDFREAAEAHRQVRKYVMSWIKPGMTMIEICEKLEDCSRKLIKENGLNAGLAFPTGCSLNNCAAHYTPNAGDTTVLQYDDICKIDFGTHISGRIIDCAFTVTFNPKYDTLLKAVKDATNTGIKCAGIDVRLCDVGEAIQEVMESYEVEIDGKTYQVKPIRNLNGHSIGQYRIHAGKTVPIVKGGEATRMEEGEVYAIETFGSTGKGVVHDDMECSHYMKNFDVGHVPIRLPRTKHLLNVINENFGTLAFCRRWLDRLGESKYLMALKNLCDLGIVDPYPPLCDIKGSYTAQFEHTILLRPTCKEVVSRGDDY

Signal MetAp2/GAPDH normalized to untreated (DMSO) (MetAP-2 [2]; 0.1 μM, 6 hrs)	Signal MetAp2/GAPDH normalized to untreated (DMSO) (MetAP-2 [2]; 1 μM, 6 hrs)	Signal MetAp2/GAPDH normalized to untreated (DMSO) (MetAP-2 [2]; 1 μM, 48 hrs)	Signal MetAp2/GAPDH normalized to untreated (DMSO) (MetAP-2 [2]; 10 μM, 6 hrs)	Signal MetAp2/GAPDH normalized to untreated (DMSO) (MetAP-2 [2]; 10 μM, 48 hrs)	reduction of MetAP-2 protein (MetAP-2 [2]; 10 μM, after 48 h) [%]	IC50 (MetAP-2 [3]) [µM]	reduction of MetAP-2 protein (MetAP-2 [2]; 1 μM, after 6 h) [%]	reduction of MetAP-2 protein (MetAP-2 [2]; 1 μM, after 24 h) [%]	reduction of MetAP-2 protein (MetAP-2 [2]; 10 μM, after 6 h) [%]	Structure (SMILES)	IC50 [1] [µM]
1.3	1.6	1.5	1.1	0.8	20	0.25	–	–	–	O=C1CCC(N2C(=O)c3ccc(NCCOCCOCCOCCOCCNC(=O)c4cc5cc(N6CCC(O)(C(=O)NCc7cc(F)cc(F)c7)C6=O)ccc5[nH]4)cc3C2=O)C(=O)N1 (stereo not shown) [Compound A2, 5-[3-[(3,5-difluorophenyl)methylcarbamoyl]-3-hydroxy-2-oxo-pyrrolidin-1-yl]-N-[2-[2-[2-[2-[2-[[2-(2,6-dioxo-3-piperidyl)-1,3-dioxo-isoindolin-5-yl]amino]-ethoxy]ethoxy]ethoxy]ethoxy]ethyl]-1H-indole-2-carboxamide]	30
1.3	0.9	1.2	0.9	0.3	70	0.19	15	40	10	O=C1CCC(N2C(=O)c3cccc(NCCOCCOCCOCCOCCOCCNC(=O)c4cc5cc(N6CCC(O)(C(=O)NCc7cc(F)cc(F)c7)C6=O)ccc5[nH]4)c3C2=O)C(=O)N1 (stereo not shown) [Compound A1, 5-[3-[(3,5-difluorophenyl)methylcarbamoyl]-3-hydroxy-2-oxo-pyrrolidin-1-yl]-N-[2-[2-[2-[2-[2-[2-[[2-(2,6-dioxo-3-piperidyl)-1,3-dioxo-isoindolin-4-yl]amino]ethoxy]ethoxy]ethoxy]ethoxy]ethoxy]ethyl]-1H-indole-2-carboxamide]	25
